Results published in ChEMBL document CHEMBL1123458, “2-Phenylindenes: development of a new mammary tumor inhibiting antiestrogen by combination of estrogenic side effect lowering structural elements” (1986).

Assays:
[1] = molecular target: Estrogen receptor (Bos taurus) (UniProt Q9XSB5+P49884); assay: Inhibition of [3H]estradiol binding to calf uterine estrogen receptor; type: protein assay
[2] = molecular target: T1, Estrogen receptor (Mus musculus) (UniProt O08537+P19785); assay: Anti-uterotrophic effect in mice at 1.0 ug; type: functional
T1 sequence (O08537 whole entry, looked up): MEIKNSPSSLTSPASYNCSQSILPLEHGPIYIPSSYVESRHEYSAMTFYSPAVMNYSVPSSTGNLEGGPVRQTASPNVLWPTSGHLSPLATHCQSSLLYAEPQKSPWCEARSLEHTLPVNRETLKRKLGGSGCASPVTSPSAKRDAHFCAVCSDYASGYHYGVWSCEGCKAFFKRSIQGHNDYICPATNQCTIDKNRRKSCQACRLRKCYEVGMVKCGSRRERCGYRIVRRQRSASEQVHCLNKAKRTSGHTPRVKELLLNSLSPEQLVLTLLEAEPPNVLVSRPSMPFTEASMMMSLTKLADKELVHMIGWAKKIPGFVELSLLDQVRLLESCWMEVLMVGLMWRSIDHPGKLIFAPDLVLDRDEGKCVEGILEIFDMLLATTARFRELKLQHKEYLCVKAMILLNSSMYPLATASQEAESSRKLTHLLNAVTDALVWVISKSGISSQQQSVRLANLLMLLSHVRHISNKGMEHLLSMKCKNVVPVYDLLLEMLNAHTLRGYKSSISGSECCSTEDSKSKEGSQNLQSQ
T1 sequence (P19785 whole entry, looked up): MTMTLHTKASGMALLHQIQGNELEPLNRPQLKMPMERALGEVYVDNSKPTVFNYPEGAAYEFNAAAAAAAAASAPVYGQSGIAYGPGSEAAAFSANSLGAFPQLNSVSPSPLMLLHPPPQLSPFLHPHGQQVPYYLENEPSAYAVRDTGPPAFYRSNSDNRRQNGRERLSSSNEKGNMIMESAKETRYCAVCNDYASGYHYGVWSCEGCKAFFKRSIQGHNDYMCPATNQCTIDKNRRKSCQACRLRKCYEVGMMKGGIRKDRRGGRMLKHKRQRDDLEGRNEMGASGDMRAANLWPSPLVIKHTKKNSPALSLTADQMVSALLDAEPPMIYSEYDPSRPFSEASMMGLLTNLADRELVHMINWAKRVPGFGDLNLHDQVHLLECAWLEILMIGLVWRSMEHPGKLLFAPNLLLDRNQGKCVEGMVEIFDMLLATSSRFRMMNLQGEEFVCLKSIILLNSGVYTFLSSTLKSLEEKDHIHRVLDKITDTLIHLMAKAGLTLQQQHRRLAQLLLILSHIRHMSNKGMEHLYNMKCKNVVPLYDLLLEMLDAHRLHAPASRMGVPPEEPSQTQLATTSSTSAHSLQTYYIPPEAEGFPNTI

[3] = molecular target: T1, Estrogen receptor (Mus musculus); assay: Anti-uterotrophic effect in mice at 25 ug; type: functional
[4] = molecular target: T1, Estrogen receptor (Mus musculus); assay: Anti-uterotrophic effect in immature mice at 1.0 ug; type: functional
[5] = molecular target: T1, Estrogen receptor (Mus musculus); assay: Anti-uterotrophic effect in immature mice at 25 ug; type: functional
[6] = molecular target: T1, Estrogen receptor (Mus musculus); assay: Anti-uterotrophic effect in mice at 5 ug; type: functional
[7] = molecular target: T1, Estrogen receptor (Mus musculus); assay: Anti-uterotrophic effect in immature mice at 5 ug; type: functional
[8] = molecular target: T1, Estrogen receptor (Mus musculus); assay: Anti-uterotrophic effect in mice at 100 ug; type: functional
[9] = molecular target: T1, Estrogen receptor (Mus musculus); assay: Anti-uterotrophic effect in immature mice at 100 ug; type: functional

| Structure (SMILES) | RBA [1] [%] | Effect [2] [mg 100g-1] | Effect [3] [mg 100g-1] | inhibition [4] [%] | inhibition [5] [%] | Effect [6] [mg 100g-1] | inhibition [7] [%] | Effect [8] [mg 100g-1] | inhibition [9] [%] |
| --- | --- | --- | --- | --- | --- | --- | --- | --- | --- |
| CC(=O)c1ccc(C2=C(C(C)C)c3cc(C(C)=O)c(C(C)=O)cc3C2(C)C)cc1C(C)=O | 1.7 | 29 | 32.5 | 28 | 11 |  |  |  |  |
| CCC1=C(c2cccc(C(C)=O)c2)C(C)c2ccc(C(C)=O)cc21 (configuration not stated) | 1.8 | 30.1 | 40.2 | 48 | 9 | 34.8 | 30 |  |  |
| CC(=O)c1cccc(C2=C(C(C)C)c3cc(C(C)=O)ccc3C2(C)C)c1 | 2 | 30.3 | 44.7 | 21 | 0 |  |  |  |  |

More lines, now with the values ahead:

| RBA [1] [%] | Effect [2] [mg 100g-1] | Effect [3] [mg 100g-1] | inhibition [4] [%] | inhibition [5] [%] | Effect [6] [mg 100g-1] | inhibition [7] [%] | Effect [8] [mg 100g-1] | inhibition [9] [%] | Structure (SMILES) |
| --- | --- | --- | --- | --- | --- | --- | --- | --- | --- |
| 1 | 33.8 | 40.4 | 31 | 8 | 27.4 | 54 | 41.3 | 5 | CC/C(=C(/CC)c1ccc(C(C)=O)c(C(C)=O)c1)c1ccc(C(C)=O)c(C(C)=O)c1 |
| 2.2 |  |  |  |  |  |  |  |  | CC/C(=C(/CC)c1cccc(C(C)=O)c1)c1cccc(C(C)=O)c1 |
